According to patent publication US10414763B2 (CANCER RESEARCH TECHNOLOGY LIMITED, priority 2014, dated 2019):

Target: T1, full-length human PKCι (Homo sapiens, UniProt P41743)
T1 construct: Recombinant, full-length human PKCι expressed in Sf21 insect cells is also commercially available; purchased EMD Millipore; host or cells: Sf21 insect cells (baculovirus)
T1 sequence (P41743 1-596): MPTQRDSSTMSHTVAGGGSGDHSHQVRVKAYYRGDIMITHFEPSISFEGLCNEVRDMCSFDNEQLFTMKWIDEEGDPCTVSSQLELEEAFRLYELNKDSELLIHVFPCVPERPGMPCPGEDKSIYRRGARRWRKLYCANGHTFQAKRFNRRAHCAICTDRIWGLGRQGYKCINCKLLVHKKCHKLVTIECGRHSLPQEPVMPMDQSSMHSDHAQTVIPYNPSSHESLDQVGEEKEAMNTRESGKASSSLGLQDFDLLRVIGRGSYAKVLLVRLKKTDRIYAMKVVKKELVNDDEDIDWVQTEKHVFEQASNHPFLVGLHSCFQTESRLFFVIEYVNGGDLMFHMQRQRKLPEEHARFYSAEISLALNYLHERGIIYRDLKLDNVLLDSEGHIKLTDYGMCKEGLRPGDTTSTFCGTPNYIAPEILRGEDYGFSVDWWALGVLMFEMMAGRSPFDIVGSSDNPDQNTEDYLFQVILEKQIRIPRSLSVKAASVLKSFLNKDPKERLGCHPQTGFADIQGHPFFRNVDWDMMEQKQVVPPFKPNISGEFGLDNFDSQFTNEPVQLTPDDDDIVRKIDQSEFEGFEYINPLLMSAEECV
Experiment: PKCι IC50 IMAP fluorescence polarisation assay, full-length enzyme, 150 μM ATP
Format: biochemical
Details: read-out: IC50 in IMAP assay against full length PKCi at 150 μM ATP
Outline: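 IMAP fluorescence polarisation kinase assay: 15 pM baculovirus-expressed human PKCiota with 100 nM FAM-pseudosubstrate peptide and 150 μM ATP, 1 h at 25 °C. IMAP detection reagent then 2 h at 25 °C before FP measurement. Inhibition referenced to no-compound and no-enzyme controls for IC50 fitting.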

Compound | IC50 [nM]
C[C@@H]1CNCC[C@@H]1Nc1nc(-c2ccnc(Nc3ncccc3F)c2)nc2cncc(C3CC3)c12 (racemic) [Example 299, {5-Cyclopropyl-2-[2-(3-fluoro-pyridin-2-ylamino)-pyridin-4-yl]-pyrido[3,4-d]pyrimidin-4-yl}-(rac-(3R,4S)-3-methyl-piperidin-4-yl)-amine] | 100 to 1000
C[C@@H]1CNCC[C@@H]1Nc1nc(-c2ccnc(Nc3ncc(F)cc3F)c2)nc2cncc(C3CC3)c12 (racemic) [Example 300, {5-Cyclopropyl-2-[2-(3,5-difluoro-pyridin-2-ylamino)-pyridiri-4-yl]-pyrido[3,4-d]pyrimidin-4-yl}-(rac-(3R,4S)-3-methyl-piperidin-4-yl)-amine] | 100 to 1000
O[C@H]1CNCC[C@H]1Nc1nc(-c2ccnc(Nc3ncccc3F)c2)nc2cncc(C3CC3)c12 (racemic) [Example 305, rac-(3S,4R)-4-{5-Cyclopropyl-2-[2-(3-fluoro-pyridin-2-ylamino)-pyridin-4-yl]-pyrido[3,4-d]pyrimidin-4-ylamino}-piperidin-3-ol] | 100 to 1000
O[C@H]1CNCC[C@H]1Nc1nc(-c2ccnc(Nc3ncc(F)cc3F)c2)nc2cncc(C3CC3)c12 (racemic) [Example 306, rac-(3S,4R)-4-{5-Cyclopropyl-2-[2-(3,5-difluoro-pyridin-2-ylamino)-pyridin-4-yl]-pyrido[3,4-d]pyrimidin-4-ylamino}-piperidin-3-ol] | 100 to 1000
O[C@@H]1CNCC[C@H]1Nc1nc(-c2ccnc(Nc3ncccc3F)c2)nc2cncc(C3CC3)c12 (racemic) [Example 308, rac-(3R,4R)-4-{5-Cyclopropyl-2-[2-(3-fluoro-pyridin-2-ylamino)-pyridin-4-yl]-pyrido[3,4-d]pyrimidin-4-ylamino}-piperidin-3-ol] | 100 to 1000
Cc1nc(Nc2cc(-c3nc(N[C@H]4CCNC[C@H]4C)c4c(C5CCC5)cncc4n3)ccn2)ccc1C#N (racemic) [Example 311, 6-{4-[5-Cyclobutyl-4-(rac-(3R,4S)-3-methyl-piperidin-4-ylamino)-pyrido[3,4-d]pyrimidin-2-yl]-pyridin-2-ylamino}-2-methyl-nicotinonitrile] | < 100
Cc1nc(Nc2cc(-c3nc(N[C@@H]4CCNC[C@H]4C)c4c(C5CCC5)cncc4n3)ccn2)ccc1C#N (racemic) [Example 312, 6-{4-[5-Cyclobutyl-4-(rac-(3R,4R)-3-methyl-piperidin-4-ylamino)-pyrido[3,4-d]pyrimidin-2-yl]-pyridin-2-ylamino}-2-methyl-nicotinonitrile] | < 100
Cc1nc(Nc2cc(-c3nc(N[C@@H]4CCNC[C@@H]4O)c4c(C5CCC5)cncc4n3)ccn2)ccc1C#N (racemic) [Example 313, 6-{4-[5-Cyclobutyl-4-(rac-(3S,4R)-3-hydroxy-piperidin-4-ylamino)-pyrido[3,4-d]pyrimidin-2-yl]-pyridin-2-ylamino}-2-methyl-nicotinonitrile] | < 100
Cc1nc(Nc2cc(-c3nc(N[C@@H]4CCNC[C@H]4O)c4c(C5CCC5)cncc4n3)ccn2)ccc1C#N (racemic) [Example 314, 6-{4-[5-Cyclobutyl-4-(rac-(3R,4R)-3-hydroxy-piperidin-4-ylamino)-pyrido[3,4-d]pyrimidin-2-yl]-pyridin-2-ylamino}-2-methyl-nicotinonitrile] | < 100
N[C@@H]1CN(c2nc(-c3ccnc4[nH]c5ccccc5c34)nc3cncc(C4CCC4)c23)C[C@H]1O (racemic) [Example 343, rac-(3R,4R)-4-Amino-1-[5-cyclobutyl-2-(9H-pyrido[2,3-b]indol-4-yl)-pyrido[3,4-d]pyrimidin-4-yl]-pyrrolidin-3-ol] | 100 to 1000
O[C@H]1CNCC[C@H]1Nc1nc(-c2ccnc3[nH]c4ccccc4c23)nc2cncc(C3CCC3)c12 (racemic) [Example 344, rac-(3S,4R)-4-[5-Cyclobutyl-2-(9H-pyrido[2,3-b]indol-4-yl)-pyrido[3,4-d]pyrimidin-4-ylamino]-piperidin-3-ol] | < 100
O[C@@H]1CNCC[C@H]1Nc1nc(-c2ccnc3[nH]c4ccccc4c23)nc2cncc(C3CCC3)c12 (racemic) [Example 345, rac-(3R,4R)-4-[5-Cyclobutyl-2-(9H-pyrido[2,3-b]indol-4-yl)-pyrido[3,4-d]pyrimidin-4-ylamino]-piperidin-3-ol] | < 100
C[C@@H]1CNCC[C@H]1Nc1nc(-c2ccnc3[nH]c4ccccc4c23)nc2cncc(C3CCC3)c12 (racemic) [Example 346, [5-Cyclobutyl-2-(9H-pyrido[2,3-b]indol-4-yl)-pyrido[3,4-d]pyrimidin-4-yl]-(rac-(3R,4R)-3-methyl-piperidin-4-yl)-amine] | < 100
C[C@H]1CNCC[C@H]1Nc1nc(-c2ccnc3[nH]c4ccccc4c23)nc2cncc(C3CCC3)c12 (racemic) [Example 347, [5-Cyclobutyl-2-(9H-pyrido[2,3-b]indol-4-yl)-pyrido[3,4-d]pyrimidin-4-yl]-(rac-(3S,4R)-3-methyl-piperidin-4-yl)-amine] | < 100
O[C@H]1CNCC[C@H]1Nc1nc(-c2ccnc3[nH]c4ccccc4c23)nc2cncc(C(F)(F)F)c12 (racemic) [Example 349, rac-(3S,4R)-4-[2-(9H-Pyrido[2,3-b]indol-4-yl)-5-trifluoromethyl-pyrido[3,4-d]pyrimidin-4-ylamino]-piperidin-3-ol] | 100 to 1000
O[C@@H]1CNCC[C@H]1Nc1nc(-c2ccnc3[nH]c4ccccc4c23)nc2cncc(C(F)(F)F)c12 (racemic) [Example 350, rac-(3R,4R)-4-[2-(9H-Pyrido[2,3-b]indol-4-yl)-5-trifluoromethyl-pyrido[3,4-d]pyrimidin-4-ylamino]-piperidin-3-ol] | < 100

More lines, now with the values ahead:

IC50 [nM] | Compound
< 100 | C[C@@H]1CNCC[C@@H]1Nc1nc(-c2ccnc(Nc3nc(F)cc(F)c3F)c2)nc2cncc(C3CCC3)c12 (racemic) [Example 295, {5-Cyclobutyl-2-[2-(3,4,6-trifluoro-pyridin-2-ylamino)-pyridin-4-yl]-pyrido[3,4-d]pyrimidin-4-yl}-(rac-(3R,4S)-3-methyl-piperidin-4-yl)-amine]
< 100 | O[C@@H]1CNCC[C@H]1Nc1nc(-c2ccnc(Nc3nc(F)cc(F)c3F)c2)nc2cncc(C3CCC3)c12 (racemic) [Example 296, rac-(3R,4R)-4-{5-Cyclobutyl-2-[2-(3,4,6-trifluoro-pyridin-2-ylamino)-pyridin-4-yl]-pyrido[3,4-d]pyrimidin-4-ylamino}-piperidin-3-ol]
< 100 | C[C@@H]1CNCC[C@@H]1Nc1nc(-c2ccnc(Nc3nc(F)cc(F)c3F)c2)nc2cncc(C3CC3)c12 (racemic) [Example 301, {5-Cyclopropyl-2-[2-(3,4,6-trifluoro-pyridin-2-ylamino)-pyridin-4-yl]-pyrido[3,4-d]pyrimidin-4-yl}-(rac-(3R,4S)-3-methyl-piperidin-4-yl)-amine]
< 100 | C[C@@H]1CNCC[C@H]1Nc1nc(-c2ccnc(Nc3ncccc3F)c2)nc2cncc(C3CC3)c12 (racemic) [Example 302, {5-Cyclopropyl-2-[2-(3-fluoro-pyridin-2-ylamino)-pyridin-4-yl]-pyrido[3,4-d]pyrimidin-4-yl}-(rac-(3R,4R)-3-methyl-piperidin-4-yl)-amine]
< 100 | C[C@@H]1CNCC[C@H]1Nc1nc(-c2ccnc(Nc3ncc(F)cc3F)c2)nc2cncc(C3CC3)c12 (racemic) [Example 303, {5-Cyclopropyl-2-[2-(3,5-difluoro-pyridin-2-ylamino)-pyridin-4-yl]-pyrido[3,4-d]pyrimidin-4-yl}-(rac-(3R,4R)-3-methyl-piperidin-4-yl)-amine]
< 100 | C[C@@H]1CNCC[C@H]1Nc1nc(-c2ccnc(Nc3nc(F)cc(F)c3F)c2)nc2cncc(C3CC3)c12 (racemic) [Example 304, {5-Cyclopropyl-2-[2-(3,4,6-trifluoro-pyridin-2-ylamino)-pyridin-4-yl]-pyrido[3,4-d]pyrimidin-4-yl}-(rac-(3R,4R)-3-methyl-piperidin-4-yl)-amine]
< 100 | O[C@H]1CNCC[C@H]1Nc1nc(-c2ccnc(Nc3nc(F)cc(F)c3F)c2)nc2cncc(C3CC3)c12 (racemic) [Example 307, rac-(3S,4R)-4-{5-Cyclopropyl-2-[2-(3,4,6-trifluoro-pyridin-2-ylamino)-pyridin-4-yl]-pyrido[3,4-d]pyrimidin-4-ylamino}-piperidin-3-ol]
< 100 | O[C@@H]1CNCC[C@H]1Nc1nc(-c2ccnc(Nc3ncc(F)cc3F)c2)nc2cncc(C3CC3)c12 (racemic) [Example 309, rac-(3R,4R)-4-{5-Cyclopropyl-2-[2-(3,5-difluoro-pyridin-2-ylamino)-pyridin-4-yl]-pyrido[3,4-d]pyrimidin-4-ylamino}-piperidin-3-ol]
< 100 | O[C@@H]1CNCC[C@H]1Nc1nc(-c2ccnc(Nc3nc(F)cc(F)c3F)c2)nc2cncc(C3CC3)c12 (racemic) [Example 310, rac-(3R,4R)-4-{5-Cyclopropyl-2-[2-(3,4,6-trifluoro-pyridin-2-ylamino)-pyridin-4-yl]-pyrido[3,4-d]pyrimidin-4-ylamino}-piperidin-3-ol]
